Assay results published in PubChem BioAssay AID256 (DTP/NCI, 2004).
Several values for one entry are separate records, joined by “and”; a condition that tells them apart may be missing. Equal entries are not always repeated. Inconclusive results and toxic doses are left out.

Test system: CD2F1 mice, L1210 leukemia ip, survival T/C
Assay: NCI In Vivo Anticancer Drug Screen. Data for tumor model L1210 Leukemia (intraperitoneal) in CD2F1 (CDF1) mice
Conditions: higher = longer survival
Procedure, shortened: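 Each value reflects a quotient of treated over vehicle control outcomes in mice with a transplanted tumor.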

[1] = endpoint: mean survival time, dose: 100.0 mg/kg/injection, schedule: Q01DX001 (ip), vehicle: saline with Tween-80
[2] = endpoint: mean survival time, dose: 200.0 mg/kg/injection, schedule: Q01DX001 (ip), vehicle: saline with Tween-80
[3] = endpoint: mean survival time, dose: 400.0 mg/kg/injection, schedule: Q01DX001 (ip), vehicle: saline with Tween-80
[4] = endpoint: mean survival time, dose: 50.0 mg/kg/injection, schedule: Q01DX009 (ip), vehicle: saline with Tween-80
[5] = endpoint: mean survival time, dose: 100.0 mg/kg/injection, schedule: Q01DX009 (ip), vehicle: saline with Tween-80
[6] = endpoint: mean survival time, dose: 200.0 mg/kg/injection, schedule: Q01DX009 (ip), vehicle: saline with Tween-80
[7] = endpoint: mean survival time, dose: 50.0 mg/kg/injection, schedule: Q01DX009 (ip), vehicle: saline
[8] = endpoint: mean survival time, dose: 400.0 mg/kg/injection, schedule: Q01DX009 (ip), vehicle: saline with Tween-80
[9] = endpoint: mean survival time, dose: 100.0 mg/kg/injection, schedule: Q04DX003 (ip), vehicle: saline with Tween-80
[10] = endpoint: mean survival time, dose: 200.0 mg/kg/injection, schedule: Q04DX003 (ip), vehicle: saline with Tween-80

## CCOC(=O)CCC(NC(=O)c1ccc(CN(C)Cc2cnc3nc(N)nc(N)c3n2)cc1)C(=O)OCC (stereo unspecified)
endpoint: mean survival time, dose: 1.0 mg/kg/injection, schedule: Q01DX009 (ip), vehicle: Klucel (hydroxypropylcellulose) (HPC)
  T/C: 100 % of control
endpoint: mean survival time, dose: 10.0 mg/kg/injection, schedule: Q01DX009 (ip), vehicle: Klucel (hydroxypropylcellulose) (HPC)
  T/C: 108 % of control
endpoint: mean survival time, dose: 25.0 mg/kg/injection, schedule: Q01DX009 (ip), vehicle: Klucel (hydroxypropylcellulose) (HPC)
  T/C: 115 % of control

## CCC(CCC(C)C1CCC2C3CC=C4CC(I)CCC4(C)C3CCC12C)C(C)C (stereo unspecified)
[1]
  T/C: 90 % of control
[2]
  T/C: 90 % of control
[3]
  T/C: 94 % of control

## CN(CCOS(C)(=O)=O)CCOS(C)(=O)=O
endpoint: mean survival time, dose: 5.0 mg/kg/injection, schedule: Q01DX001 (ip), vehicle: saline
  T/C: 121 % of control

## Cc1cc(I)ccc1NC(=S)Nc1ccccc1F
[4]
  T/C: 93 % of control
[1]
  T/C: 100 % of control
[5]
  T/C: 90 % of control
[2]
  T/C: 96 % of control
[6]
  T/C: 93 % of control
[3]
  T/C: 96 % of control

## O=C(O)CNC(=O)C(CSC(c1ccccc1)(c1ccccc1)c1ccccc1)NC(c1ccccc1)(c1ccccc1)c1ccccc1 (stereo unspecified)
endpoint: mean survival time, dose: 75.0 mg/kg/injection, schedule: Q01DX001 (ip), vehicle: saline
  T/C: 97 % of control

## C1CNC(SCCOCCOCCSC2=NCCN2)=N1
endpoint: mean survival time, dose: 12.5 mg/kg/injection, schedule: Q01DX009 (ip), vehicle: saline
  T/C: 97 % of control
endpoint: mean survival time, dose: 25.0 mg/kg/injection, schedule: Q01DX009 (ip), vehicle: saline
  T/C: 97 % of control
[7]
  T/C: 100 % of control

## COc1ccccc1NC(=O)N(CCCl)N=O
endpoint: mean survival time, dose: 1.5 mg/kg/injection, schedule: Q01DX009 (ip), vehicle: carboxymethylcellulose (CMC)
  T/C: 115 % of control
endpoint: mean survival time, dose: 3.5 mg/kg/injection, schedule: Q01DX009 (ip), vehicle: carboxymethylcellulose (CMC)
  T/C: 168 % of control

## COc1cc([C@@H]2c3cc4c(c(O)c3C[C@H]3COC(=O)[C@@H]32)OCO4)cc(OC)c1O
endpoint: mean survival time, dose: 125.0 micrograms/kg/injection, schedule: Q01DX009 (ip), vehicle: saline
  T/C: 102 % of control
endpoint: mean survival time, dose: 250.0 micrograms/kg/injection, schedule: Q01DX009 (ip), vehicle: saline
  T/C: 108 % of control
endpoint: mean survival time, dose: 500.0 micrograms/kg/injection, schedule: Q01DX009 (ip), vehicle: saline
  T/C: 110 % of control
endpoint: mean survival time, dose: 1000.0 micrograms/kg/injection, schedule: Q01DX009 (ip), vehicle: saline
  T/C: 122 % of control
endpoint: mean survival time, dose: 2000.0 micrograms/kg/injection, schedule: Q01DX009 (ip), vehicle: saline
  T/C: 118 % of control

## NC(=S)N/N=C/c1ccccc1N
endpoint: mean survival time, dose: 100.0 mg/kg/injection, schedule: Q04DX003 (ip), vehicle: acetone
  T/C: 103 % of control
endpoint: mean survival time, dose: 200.0 mg/kg/injection, schedule: Q04DX003 (ip), vehicle: acetone
  T/C: 97 % of control
endpoint: mean survival time, dose: 400.0 mg/kg/injection, schedule: Q04DX003 (ip), vehicle: acetone
  T/C: 104 % of control

## Clc1ccc(N2CSCSC2)cc1
[4]
  T/C: 95 % of control
[5]
  T/C: 98 % of control
[6]
  T/C: 95 % of control

## Cc1cn(C2CC(O)C(CO)O2)c(=O)nc1NC1CC1 (stereo unspecified)
endpoint: median survival time, dose: 12.5 mg/kg/injection, schedule: Q01DX005 (ip), vehicle: water
  T/C: 102 % of control
endpoint: median survival time, dose: 25.0 mg/kg/injection, schedule: Q01DX005 (ip), vehicle: water
  T/C: 102 % of control
endpoint: median survival time, dose: 50.0 mg/kg/injection, schedule: Q01DX005 (ip), vehicle: water
  T/C: 104 % of control
endpoint: median survival time, dose: 100.0 mg/kg/injection, schedule: Q01DX005 (ip), vehicle: water
  T/C: 103 % of control
endpoint: median survival time, dose: 200.0 mg/kg/injection, schedule: Q01DX005 (ip), vehicle: water
  T/C: 102 % of control

## C(N=Nc1ccccc1)=C(c1ccccc1)c1ccccc1
endpoint: mean survival time, dose: 100.0 mg/kg/injection, schedule: Q04DX002 (ip), vehicle: other
  T/C: 107 % of control
endpoint: mean survival time, dose: 200.0 mg/kg/injection, schedule: Q04DX002 (ip), vehicle: other
  T/C: 103 % of control
endpoint: mean survival time, dose: 400.0 mg/kg/injection, schedule: Q04DX002 (ip), vehicle: other
  T/C: 103 % of control

## O=c1c(Cl)c(Cl)cnn1-c1ccc([N+](=O)[O-])cc1[N+](=O)[O-]
endpoint: mean survival time, dose: 100.0 mg/kg/injection, schedule: Q01DX001 (ip), vehicle: other
  T/C: 88 % of control
endpoint: mean survival time, dose: 200.0 mg/kg/injection, schedule: Q01DX001 (ip), vehicle: other
  T/C: 88 % of control
endpoint: mean survival time, dose: 400.0 mg/kg/injection, schedule: Q01DX001 (ip), vehicle: other
  T/C: 94 % of control

## Cc1ccc(S(=O)(=O)Nc2ccc(I)cc2F)cc1
[5]
  T/C: 101 % of control
[6]
  T/C: 97 % of control
[8]
  T/C: 97 % of control

## CCC(=O)OCc1cc2ccccc2c(-c2c(O)c(CN3CCOCC3)cc3ccccc23)c1O
endpoint: mean survival time, dose: 100.0 mg/kg/injection, schedule: Q04DX002 (ip), vehicle: saline with Tween-80
  T/C: 95 % of control
endpoint: mean survival time, dose: 200.0 mg/kg/injection, schedule: Q04DX002 (ip), vehicle: saline with Tween-80
  T/C: 91 % of control
endpoint: mean survival time, dose: 400.0 mg/kg/injection, schedule: Q04DX002 (ip), vehicle: saline with Tween-80
  T/C: 91 % of control

## N#CC(/C=C/c1ccccc1)Nc1ccccc1 (stereo unspecified)
[5]
  T/C: 89 % of control
endpoint: mean survival time, dose: 100.0 mg/kg/injection, schedule: Q04DX003 (ip), vehicle: saline sonified
  T/C: 100 % of control
[6]
  T/C: 90 % of control
endpoint: mean survival time, dose: 200.0 mg/kg/injection, schedule: Q04DX003 (ip), vehicle: saline sonified
  T/C: 97 % of control
[8]
  T/C: 89 % of control
endpoint: mean survival time, dose: 400.0 mg/kg/injection, schedule: Q04DX003 (ip), vehicle: saline sonified
  T/C: 96 % of control

## O=[N+]([O-])c1ccc(SSC(Cl)(Cl)Cl)cc1
endpoint: mean survival time, dose: 6.25 mg/kg/injection, schedule: Q01DX009 (ip), vehicle: saline with Tween-80
  T/C: 101 % of control
endpoint: mean survival time, dose: 12.5 mg/kg/injection, schedule: Q01DX009 (ip), vehicle: saline with Tween-80
  T/C: 101 % of control
endpoint: mean survival time, dose: 25.0 mg/kg/injection, schedule: Q01DX009 (ip), vehicle: saline with Tween-80
  T/C: 101 % of control
[4]
  T/C: 100 % of control

## Nc1nc2ncn(O)c2c(=O)[nH]1
endpoint: median survival time, dose: 3.12 mg/kg/injection, schedule: Q01DX009 (ip), vehicle: other
  T/C: 176 % of control
endpoint: median survival time, dose: 6.25 mg/kg/injection, schedule: Q01DX009 (ip), vehicle: other
  T/C: 195 % of control
endpoint: median survival time, dose: 6.25 mg/kg/injection, schedule: Q01DX009 (ip), vehicle: water
  T/C: 168 % of control and 172 % of control
endpoint: median survival time, dose: 12.5 mg/kg/injection, schedule: Q01DX009 (ip), vehicle: other
  T/C: 162 % of control
endpoint: median survival time, dose: 12.5 mg/kg/injection, schedule: Q01DX009 (ip), vehicle: water
  T/C: 168 % of control and 234 % of control
endpoint: median survival time, dose: 25.0 mg/kg/injection, schedule: Q01DX009 (ip), vehicle: other
  T/C: 101 % of control
endpoint: median survival time, dose: 25.0 mg/kg/injection, schedule: Q01DX009 (ip), vehicle: water
  T/C: 164 % of control

## Cc1ccc(C(=O)c2cnc(C)n2Cc2ccccc2)cc1
[5]
  T/C: 92 % of control
[6]
  T/C: 92 % of control
[8]
  T/C: 97 % of control

## Cc1ccccc1CN1C2=NCCN2C(=O)C2=C1CCN(S(=O)(=O)c1ccc(Cl)c(S(N)(=O)=O)c1)C2
endpoint: median survival time, dose: 25.0 mg/kg/injection, schedule: Q01DX009 (ip), vehicle: saline
  T/C: 95 % of control
endpoint: median survival time, dose: 50.0 mg/kg/injection, schedule: Q01DX009 (ip), vehicle: saline
  T/C: 100 % of control
endpoint: median survival time, dose: 100.0 mg/kg/injection, schedule: Q01DX009 (ip), vehicle: saline
  T/C: 93 % of control
endpoint: median survival time, dose: 400.0 mg/kg/injection, schedule: Q01DX009 (ip), vehicle: saline
  T/C: 88 % of control

## O/N=C/C1CCCC[N-]1.O/N=C/C1CCCC[N-]1.O/N=C/C1CCCC[N-]1.[Cu] (stereo unspecified)
endpoint: median survival time, dose: 0.75 mg/kg/injection, schedule: Q03HX024 (ip), vehicle: saline
  T/C: 95 % of control
endpoint: median survival time, dose: 1.5 mg/kg/injection, schedule: Q03HX024 (ip), vehicle: saline
  T/C: 95 % of control
endpoint: median survival time, dose: 6.0 mg/kg/injection, schedule: Q03HX024 (ip), vehicle: saline
  T/C: 104 % of control
endpoint: median survival time, dose: 8.0 mg/kg/injection, schedule: Q03HX024 (ip), vehicle: saline
  T/C: 179 % of control

## COC(CCCl)c1ccc(Cl)cc1 (stereo unspecified)
[7]
  T/C: 96 % of control
endpoint: mean survival time, dose: 100.0 mg/kg/injection, schedule: Q01DX009 (ip), vehicle: saline
  T/C: 96 % of control
[9]
  T/C: 96 % of control
endpoint: mean survival time, dose: 200.0 mg/kg/injection, schedule: Q01DX009 (ip), vehicle: saline
  T/C: 98 % of control
[10]
  T/C: 87 % of control

## ClC=C(c1ccc(Cl)cc1)c1ccc(Cl)cc1
[9]
  T/C: 97 % of control
[10]
  T/C: 97 % of control
endpoint: mean survival time, dose: 400.0 mg/kg/injection, schedule: Q04DX003 (ip), vehicle: saline with Tween-80
  T/C: 101 % of control

## O=S(=O)(O)C(Nc1ccccn1)c1ccccc1 (stereo unspecified)
endpoint: mean survival time, dose: 25.0 mg/kg/injection, schedule: Q01DX001 (ip), vehicle: saline with Tween-80
  T/C: 98 % of control
endpoint: mean survival time, dose: 50.0 mg/kg/injection, schedule: Q01DX001 (ip), vehicle: saline with Tween-80
  T/C: 106 % of control
[1]
  T/C: 106 % of control
